Results taken from patent US7368471B2, “Substituted indole acid derivatives as inhibitors of plasminogen activator inhibitor-1 (PAI-1)” (Wyeth, priority 2001, dated 2008).
Like-named read-outs stand apart in the source and are kept apart here.

How the values were obtained:
human PAI-1 = human PAI-1 (Homo sapiens, UniProt P05121); experiment: Antibody Assay for Determining IC50 of Inhibition of PAI-1 (active PAI-1 bound to tPA-coated plate, 33B8 antibody); type: binding
Experimental: Assay for Determining IC50 of Inhibition of PAI-1
This assay is based upon the non-SDS dissociable interaction between tPA and active PAI-1. Assay plates are initially coated with human tPA (10 μg/ml). Test compounds are dissolved in DMSO at 10 mM, then diluted with physiologic buffer (pH 7.5) to a final concentration of 1-50 μM. Test compounds are incubated with human PAI-1 (50 ng/ml) for 15 minutes at room temperature. The tPA-coated plate is washed with a solution of 0.05% Tween 20 and 0.1% BSA, then the plate is blocked with a solution of 3% BSA. […] The plate is again washed, and a solution of goat anti-mouse IgG-alkaline phosphatase conjugate is added at a 1:50,000 dilution in goat serum. The plate is incubated 30 minutes at room temperature, washed, and a solution of alkaline phosphatase substrate is added. The plate is incubated 45 minutes at room temperature, and color development is determined at OD405nm. […] Results are analyzed using a logarithmic best-fit equation. The assay sensitivity is 5 ng/ml of human PAI-1 as determined from a standard curve ranging from 0-100 ng/ml.

[1] = biological target: T1, recombinant human plasminogen activator inhibitor-1 (PAI-1) (Homo sapiens, UniProt P05121); experiment: Modification of the Primary Screen for the PAI-1 Inhibition (IC50); type: biochemical; settings: footnote b: determined by a modification of the Primary Screen for the PAI-1 Inhibition
T1 construct: purchased Molecular Innovations, Royal Oak, Mich
T1 sequence (P05121 24-402): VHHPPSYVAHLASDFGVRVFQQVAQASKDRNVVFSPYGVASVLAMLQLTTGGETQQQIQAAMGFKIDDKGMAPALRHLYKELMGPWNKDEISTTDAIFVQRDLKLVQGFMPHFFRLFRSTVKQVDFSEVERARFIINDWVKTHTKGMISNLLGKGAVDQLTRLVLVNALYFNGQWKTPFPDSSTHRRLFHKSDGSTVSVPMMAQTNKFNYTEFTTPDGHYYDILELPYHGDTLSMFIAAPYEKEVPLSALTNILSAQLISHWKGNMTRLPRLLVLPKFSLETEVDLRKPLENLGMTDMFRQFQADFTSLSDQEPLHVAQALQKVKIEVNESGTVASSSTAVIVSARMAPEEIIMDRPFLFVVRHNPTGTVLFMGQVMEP
Experimental: (§1) Primary Screen for the PAI-1 Inhibition
(§2) Test compounds are dissolved in DMSO at a final concentration of 10 mM, then diluted 100× in physiologic buffer. The inhibitory assay is initiated by the addition of the test compound (1-100 μM final concentration, maximum DMSO concentration of 0.2%) in a pH 6.6 buffer containing 140 nM recombinant human plasminogen activator inhibitor-1 (PAI-1; Molecular Innovations, Royal Oak, Mich.). Following a 1 hour incubation at room temperature, 70 nM of recombinant human tissue plasminogen activator (tPA) is added, and the combination of the test compound, PAI-1 and tPA is incubated for an additional 30 minutes. Following the second incubation, Spectrozyme-tPA (American Diagnostica, Greenwich, Conn.), a chromogenic substrate for tPA, is added and absorbance read at 405 nm at 0 and 60 minutes. Relative PAI-1 inhibition is equal to the residual tPA activity in the presence of the test compound and PAI-1. Control treatments include the complete inhibition of tPA by PAI-1 at the molar ratio employed (2:1), and the absence of any effect of the test compound on tPA alone.

[2] = biological target: T1, recombinant human plasminogen activator inhibitor-1 (PAI-1); experiment: Primary Screen for the PAI-1 Inhibition (residual tPA activity, Spectrozyme-tPA chromogenic substrate); type: biochemical; settings: 25 μM test compound
Experimental: as §1, §2

[3] = footnote a: determined by the Antibody Assay, read-out: IC50

Sequence of human PAI-1 (P05121 24-402): as above

O=C(O)C(=O)c1cn(Cc2ccccc2)c2cc(-c3ccc(OC(F)(F)F)cc3)ccc12 [Example 5, {1-Benzyl-6-[4-(trifluoromethoxy)phenyl]-1H-indol-3-yl}(oxo)acetic acid]
IC50 (human PAI-1): 17.3 µM

Cc1ccc(Cn2cc(C(=O)C(=O)O)c3cc(-c4ccc(OC(F)(F)F)cc4)ccc32)cc1 [Example 26, {1-(4-Methylbenzyl)-5-[4-(trifluoromethoxy)phenyl]-1H-indol-3-yl}(oxo)acetic acid]
IC50 [1]: 6.8 µM
melting point: 192 to 193 °C

Cc1cccc(-c2ccc3c(c2)c(C(=O)C(=O)O)cn3Cc2ccc(C(C)(C)C)cc2)c1 [Example 34, [1-(4-tert-Butylbenzyl)-5-(3-methylphenyl)-1H-indol-3-yl](oxo)acetic acid]
IC50 [1]: 6.2 µM

O=C(O)C(=O)c1cn(Cc2ccc(F)cc2)c2ccc(-c3ccc(OC(F)(F)F)cc3)cc12 [Example 27, {1-(4-Fluorobenzyl)-5-[4-(trifluoromethoxy)phenyl]-1H-indol-3-yl}(oxo)acetic acid]
IC50 [1]: 5.3 µM
melting point: 158 to 159 °C

Cc1ccccc1-c1ccc2c(c1)c(C(=O)C(=O)O)cn2Cc1ccc(C(C)(C)C)cc1 [Example 39, [1-(4-tert-Butylbenzyl)-5-(2-methylphenyl)-1H-indol-3-yl](oxo)acetic acid]
IC50 (human PAI-1; [3]): 21.6 µM
melting point: 97 to 98 °C

CC(C)(C)c1ccc(Cn2cc(C(=O)C(=O)O)c3cc(-c4ccc(C(C)(C)C)cc4)ccc32)cc1 [Example 36, [1-(4-tert-Butylbenzyl)-5-(4-tert-butylphenyl)-1H-indol-3-yl](oxo)acetic acid]
IC50 (human PAI-1; [3]): 10 µM
melting point: 111 to 112 °C

O=C(O)C(=O)c1cn(Cc2ccccc2)c2cc(-c3cccc(Cl)c3)ccc12 [Example 21, [1-Benzyl-6-(3-chlorophenyl)-1H-indol-3-yl](oxo)acetic acid]
IC50 (human PAI-1; [3]): 19.9 µM
melting point: 186 to 188 °C

O=C(O)C(=O)c1cn(Cc2ccccc2)c2ccc(-c3cccc(OC(F)(F)F)c3)cc12 [Example 22, {1-Benzyl-5-[3-(trifluoromethoxy)phenyl]-1H-indol-3-yl}(oxo)acetic acid]
IC50 (human PAI-1; [3]): 9.7 µM

CC(C)(C)c1ccc(Cn2cc(C(=O)C(=O)O)c3cc(-c4cccc(Cl)c4)ccc32)cc1 [Example 37, [1-(4-tert-Butylbenzyl)-5-(3-chlorophenyl)-1H-indol-3-yl](oxo)acetic acid]
IC50 (human PAI-1; [3]): 16.4 µM
melting point: 138 to 139 °C

Cc1ccc(Cn2c(CO)c(C(=O)C(=O)[O-])c3cc(-c4ccc(OC(F)(F)F)cc4)ccc32)cc1.[K+] [Example 42, {2-(Hydroxymethyl)-1-(4-methylbenzyl)-5-[4-(trifluoromethoxy)phenyl]-1H-indol-3-yl}(oxo)acetic acid, potassium salt]
IC50 (human PAI-1; [3]): 45.7 µM
melting point: 248 to 249.5 °C

CCCCn1cc(C(=O)C(=O)O)c2cc(-c3ccc(C(F)(F)F)cc3)ccc21 [Example 33, {1-Butyl-5-[4-(trifluoromethyl)phenyl]-1H-indol-3-yl}(oxo)acetic acid]
IC50 (human PAI-1; [3]): 10.5 µM
melting point: 149 °C

O=C(O)C(=O)c1cn(Cc2ccc(F)cc2)c2ccc(-c3ccccc3)cc12 [Example 28, [1-(4-Fluorobenzyl)-5-phenyl-1H-indol-3-yl](oxo)acetic acid]
IC50 (human PAI-1; [3]): 35 µM
melting point: 165 to 166 °C

O=C(O)C(=O)c1cn(Cc2ccccc2)c2ccc(-c3ccc(F)c(Cl)c3)cc12 [Example 15, [1-Benzyl-5-(3-chloro-4-fluorophenyl)-1H-indol-3-yl](oxo)acetic acid]
IC50 [1]: 6.5 µM
melting point: 145 to 146 °C (dec.)

O=C([O-])C(=O)c1c(CO)n(Cc2ccccc2)c2ccc(-c3ccc(OC(F)(F)F)cc3)cc12.[K+] [Example 44, {1-Benzyl-2-(hydroxymethyl)-5-[4-(trifluoromethoxy)phenyl]-1H-indol-3-yl}(oxo)acetic acid, potassium salt]
IC50 (human PAI-1; [3]): 26.3 µM
melting point: 280 to 282 °C

O=C(O)C(=O)c1cn(CC2CCCCC2)c2ccc(-c3cccc(Cl)c3)cc12 [Example 48, [5-(3-chlorophenyl)-1-(cyclohexylmethyl)-1H-indol-3-yl](oxo)acetic acid]
IC50 (human PAI-1; [3]): 13.3 µM

CCCCn1cc(C(=O)C(=O)O)c2cc(-c3cccc(Cl)c3)ccc21 [Example 30, [1-Butyl-5-(3-chlorophenyl)-1H-indol-3-yl](oxo)acetic acid]
IC50 [1]: 16 µM
melting point: 108 to 109 °C

O=C(O)C(=O)c1cn(Cc2ccccc2)c2c(-c3ccc(OC(F)(F)F)cc3)cccc12 [Example 17, {1-Benzyl-7-[4-(trifluoromethoxy)phenyl]-1H-indol-3-yl}(oxo)acetic acid]
IC50 (human PAI-1; [3]): 10 µM

CCCCn1cc(C(=O)C(=O)O)c2cc(-c3ccc(Cl)cc3)ccc21 [Example 29, [1-Butyl-5-(4-chlorophenyl)-1H-indol-3-yl](oxo)acetic acid]
IC50 (human PAI-1): 12.5 µM
melting point: 136 to 137 °C

O=C(O)c1cn(Cc2ccccc2)c2ccc(-c3ccc(F)c(Cl)c3)cc12 [Example 62, 1-Benzyl-5-(3-chloro-4-fluoro-phenyl)-1H-indole-3-carboxylic acid]
IC50 (human PAI-1): 11.2 µM
inhibition at 25 µM [2]: 53%
melting point: 189 to 194 °C

Cc1ccc(Cn2cc(C(=O)C(=O)O)c3cc(-c4ccccc4)ccc32)cc1 [Example 25, [1-(4-Methylbenzyl)-5-phenyl-1H-indol-3-yl](oxo)acetic acid]
IC50 [1]: 14 µM
melting point: 195 to 196 °C

CC(C)(C)c1ccc(Cn2cc(C(=O)C(=O)O)c3ccc(-c4ccc(OC(F)(F)F)cc4)cc32)cc1 [Example 8, {1-[4-(tert-Butyl)benzyl]-6-[4-(trifluoromethoxy)phenyl]-1H-indol-3-yl}(oxo)acetic acid]
IC50 [1]: 11.2 µM

CC(C)(C)c1ccc(Cn2cc(C(=O)C(=O)O)c3cc(-c4ccc(OC(F)(F)F)cc4)ccc32)cc1 [Example 19, {1-(4-tert-Butylbenzyl)-5-[4-(trifluoromethoxy)phenyl]-1H-indol-3-yl}(oxo)acetic acid]
IC50 [1]: 15.8 µM

CCC(CC)Cn1cc(C(=O)C(=O)O)c2cc(-c3ccc(OC(F)(F)F)cc3)ccc21 [Example 40, {1-(2-Ethylbutyl)-5-[4-(trifluoromethoxy)phenyl]-1H-indol-3-yl}(oxo)acetic acid]
IC50 [1]: 8.5 µM
melting point: 98 to 99 °C

O=C(O)C(=O)c1cn(Cc2ccccc2)c2c(-c3ccc(F)c(Cl)c3)cccc12 [Example 18, [1-Benzyl-7-(3-chloro-4-fluorophenyl)-1H-indol-3-yl](oxo)acetic acid]
IC50 [1]: 19.4 µM
melting point: 153 to 156 °C

O=C(O)C(=O)c1cn(Cc2ccccc2)c2ccc(-c3cc(C(F)(F)F)cc(C(F)(F)F)c3)cc12 [Example 16, {1-Benzyl-5-[3,5-bis(trifluoromethyl)phenyl]-1H-indol-3-yl}(oxo)acetic acid]
IC50 (human PAI-1; [3]): 11.5 µM
melting point: 206 to 207 °C

Cn1cc(C(=O)C(=O)O)c2ccc(-c3ccc(C(F)(F)F)cc3)cc21 [Example 2, {1-Methyl-6-[4-(trifluoromethyl)phenyl]-1H-indol-3-yl}(oxo)acetic acid]
IC50 [1]: 32 µM
melting point: 256 to 257 °C (dec.)

COc1cccc(-c2ccc3c(c2)c(C(=O)C(=O)O)cn3Cc2ccc(C(C)(C)C)cc2)c1 [Example 35, [1-(4-tert-Butylbenzyl)-5-(3-methoxyphenyl)-1H-indol-3-yl](oxo)acetic acid]
IC50 [1]: 14.6 µM

CC(=O)OCc1c(C(=O)C(=O)O)c2cc(-c3ccc(OC(F)(F)F)cc3)ccc2n1Cc1ccccc1 [Example 43, {2-[(Acetyloxy)methyl]-1-benzyl-5-[4-(trifluoromethoxy)phenyl]-1H-indol-3-yl}(oxo)acetic acid]
IC50 (human PAI-1; [3]): 17.2 µM
melting point: 85 to 86 °C
